The results in this text go back to patent US9527859B2, “Amidopyridine derivative and use thereof” (Mitsubishi Tanabe Pharma Corporation, priority 2012, dated 2016).

As a reminder, the IC50 is the concentration that inhibits the measured activity by half.

For this assay, the system named is production of IL-17 in mouse splenocytes stimulated by recombinant mouse interleukin-23. Briefly: Production of IL-17 induced when mouse splenocytes were stimulated by rm-IL-23 (ELISA). It is filed as cell-based. The note with it: Splenocyte, inhibition of IL-17 production, rm-IL-23 1 nmol/L, 72 hours. Here is the method:
Effect on Production of IL-17 Induced when Mouse Splenocytes were Stimulated by Recombinant Mouse Interleukin-23 (rm-IL-23)
RPMI1640 media (Sigma-Aldrich) were used as a medium, to which 50 units/mL penicillin G potassium/50 μg/mL streptomycin (Gibco) and […] 2-mercaptoethanol (Sigma-Aldrich) were added, and then thereto was added 10% of fetal calf serum (FCS; Cell Culture Technology) which was treated at 56° C. for 30 minutes to be inactivated, and the mixture was used in the Test. The test compound was dissolved in dimethylsulfoxide and then diluted with 10% FCS-containing RPMI1640 medium to a desired concentration to be used. The spleens were aseptically taken out from 6 to 7 week-old male DBA/1J mice (Charles River Japan, Inc.) and a single cell suspension of splenocytes was prepared, which was hemolyzed by hypotonic treatment with a mixed solution of 0.83% aqueous solution of ammonium chloride and Tris-HCl buffer of pH 7.65 (9:1). A cell suspension prepared by using 10% FCS-containing RPMI1640 medium was added to a flat-bottomed 96 well microtestplate (Coaster) at 2×10^5 cells/well. Thereto were added test compounds and rm-IL-23 (R&D systems) were diluted with a medium to 1 to 1,000 nmol/L and 1 nmol/L of the final concentration, respectively, and the mixture was cultured at 37° C., 5% carbon dioxide and 95% air for 72 hours. After completion of the culture, culture supernatant was sampled and production amounts of IL-17 therein were determined by ELISA method. After sampling the supernatant, WST-8 (Seikagaku Corporation) was added at 10 μl/well and cultured at 37° C., 5% carbon dioxide and 95% air for 4 hours. Then, absorbance (O.D.: Optical Density) at 450 nm was measured by a microplate reader and the value was adopted as an index of cell survivability. An inhibition rate was calculated according to the following formula on the basis of an average of production amounts of IL-17 and O.D. values of the well containing a test compound of each concentration. Inhibition (%)=(1−(Average value of well with addition of test compound)/(Average value of well without addition of test compound))×100
Based on the dose-response curve obtained by plotting the inhibition rate in the longitudinal axis and the concentration in the horizontal axis, the concentration of the compound which inhibits the level to 50% of the value of the control group (IC50) (nmol/L) was determined by linear regression analysis.

On to `Cc1c(C(=O)Nc2cnc(N3CCC(O)CC3)c(C3CC3)c2)cnn1-c1ccc(Cl)cc1Cl` [Example 9, N-[5-cyclopropyl-6-(4-hydroxypiperidin-1-yl)pyridin-3-yl]-1-(2,4-dichlorophenyl)-5-methyl-1H-pyrazole-4-carboxamide], for which the IC50 is 331 nM.

For the molecule `Cc1cc(NC(=O)c2cnn(-c3ccc(C(F)(F)F)cc3)c2C)cnc1N1CCC(O)CC1` [Example 15, N-[6-(4-hydroxypiperidin-1-yl)-5-methylpyridin-3-yl]-5-methyl-1-[4-(trifluoromethyl)phenyl]-1H-pyrazole-4-carboxamide], the IC50 was determined as 293 nM.

As to `COC1CCN(c2ncc(NC(=O)c3cnn(-c4ccc(Cl)cc4)c3C)cc2C)CC1` [Example 16, 1-(4-chlorophenyl)-N-[6-(4-methoxypiperidin-1-yl)-5-methylpyridin-3-yl]-5-methyl-1H-pyrazole-4-carboxamide], the IC50 stood at 264 nM.

With `CC(=O)OC1CCN(c2ncc(NC(=O)c3cnn(-c4ccc(Cl)cc4)c3C)cc2C#N)CC1` [Example 19, acetic acid (1-{5-[1-(4-chlorophenyl)-5-methyl-1H-pyrazole-4-carboxamide]-3-cyanopyridin-2-yl}piperidin-4-yl)ester], the IC50 amounted to 213 nM.

Take `N#Cc1cc(NC(=O)c2cnn(-c3ccc(Cl)cc3)c2C2CC2)cnc1N1CCC(CCO)CC1` [Example 22, 1-(4-chlorophenyl)-N-{5-cyano-6-[4-(2-hydroxyethyl)piperidin-1-yl]pyridin-3-yl}-5-cyclopropyl-1H-pyrazole-4-carboxamide]: the IC50 stood at 194 nM.

For `Cc1c(C(=O)Nc2cnc(N3CCC(O)CC3)c(C#N)c2)cnn1-c1ccc(C(C)(C)C)cc1` [Example 23, 1-(4-tert-butylphenyl)-N-[5-cyano-6-(4-hydroxypiperidin-1-yl)pyridin-3-yl]-5-methyl-1H-pyrazole-4-carboxamide], the IC50 stood at 193 nM.

On to `Cc1cc(NC(=O)c2ccn(-c3ccc(C#N)cn3)c2)cnc1N1CCC(C(C)(C)F)CC1` [Example 24, 1-(5-cyanopyridin-2-yl)-N-{6-[4-(1-fluoro-1-methylethyl)piperidin-1-yl]-5-methylpyridin-3-yl}-1H-pyrrole-3-carboxamide], for which the IC50 was determined as 180 nM.

For `CC(=O)OCCC1CCN(c2ncc(NC(=O)c3cnn(-c4ccc(F)cc4)c3C)cc2C#N)CC1` [Example 25, acetic acid [2-(1-{3-cyano-5-[1-(4-fluorophenyl)-5-methyl-1H-pyrazole-4-carboxamide]pyridin-2-yl}piperidin-4-yl)ethyl]ester], the IC50 was determined as 161 nM.

Consider `Cc1cc(NC(=O)c2cnn(-c3ccccn3)c2C)cnc1N1CCC(CC(C)(C)O)CC1` [Example 26, N-{6-[4-(2-hydroxy-2-methylpropyl)piperidin-1-yl]-5-methylpyridin-3-yl}-5-methyl-1-(pyridin-2-yl)-1H-pyrazole-4-carboxamide], for which the IC50 is 173 nM.

In the case of `Cc1cc(NC(=O)c2cnn(-c3ccc(F)c(F)c3)c2C)cnc1N1CCC(C(C)O)CC1` (stereo not drawn) [Example 27, 1-(3,4-difluorophenyl)-N-{6-[4-(1-hydroxyethyl)piperidin-1-yl]-5-methylpyridin-3-yl}-5-methyl-1H-pyrazole-4-carboxamide], the IC50 is 171 nM.

As for `Cc1cc(NC(=O)c2cnn(-c3ccc(F)cc3)c2C)cnc1N1CCC(C(C)O)CC1` (stereo not drawn) [Example 28, 1-(4-fluorophenyl)-N-{6-[4-(1-hydroxyethyl)piperidin-1-yl]-5-methylpyridin-3-yl}-5-methyl-1H-pyrazole-4-carboxamide], the IC50 amounted to 170 nM.

In the case of `Cc1c(C(=O)Nc2cnc(N3CCC(=O)CC3)c(C#N)c2)cnn1-c1ccc(Cl)cc1` [Example 29, 1-(4-chlorophenyl)-N-[5-cyano-6-(4-oxopiperidin-1-yl)pyridin-3-yl]-5-methyl-1H-pyrazole-4-carboxamide], the IC50 was determined as 168 nM.

`Cc1c(C(=O)Nc2cnc(N3CCC(CCO)CC3)c(C#N)c2)cnn1-c1ccc(F)cc1` [Example 30, N-{5-cyano-6-[4-(2-hydroxyethyl)piperidin-1-yl]pyridin-3-yl}-1-(4-fluorophenyl)-5-methyl-1H-pyrazole-4-carboxamide]: the IC50 amounted to 175 nM.

Consider `COCCC1CCN(c2ncc(NC(=O)c3cnn(-c4ccc(C(F)(F)F)cn4)c3C)cc2C)CC1` [Example 31], for which the IC50 worked out at 158 nM.

Regarding `Cc1ccc(-n2ncc(C(=O)Nc3cnc(N4CCC(C(C)(C)F)CC4)c(C)c3)c2C)cc1` [Example 32, N-{6-[4-(1-fluoro-1-methylethyl)piperidin-1-yl]-5-methylpyridin-3-yl}-5-methyl-1-(4-methylphenyl)-1H-pyrazole-4-carboxamide], the IC50 was determined as 155 nM.

`COCC1CCN(c2ncc(NC(=O)c3cnn(-c4ccc(C(F)(F)F)cc4)c3C)cc2C)CC1` [Example 33, N-{6-[4-(1-methoxymethyl)piperidin-1-yl]-5-methylpyridin-3-yl}-5-methyl-1-[4-(trifluoromethyl)phenyl]-1H-pyrazole-4-carboxamide]: the IC50 stood at 153 nM.

`Cc1cc(NC(=O)c2cnn(-c3ccc(F)cc3)c2C)cnc1N1CCC(C(C)(C)F)CC1` [Example 34, N-{6-[4-(1-fluoro-1-methylethyl)piperidin-1-yl]-5-methylpyridin-3-yl}-1-(4-fluorophenyl)-5-methyl-1H-pyrazole-4-carboxamide]: the IC50 is 151 nM.

Consider `COc1ccc(-n2ncc(C(=O)Nc3cnc(N4CCC(C(C)(C)F)CC4)c(C)c3)c2C)cc1` [Example 35, N-{6-[4-(1-fluoro-1-methylethyl)piperidin-1-yl]-5-methylpyridin-3-yl}-1-(4-methoxyphenyl)-5-methyl-1H-pyrazole-4-carboxamide], for which the IC50 is 150 nM.

For the molecule `Cc1c(C(=O)Nc2cnc(N3CCC(O)CC3)c(Cl)c2)cnn1-c1ccc(Cl)cc1` [Example 36, N-[5-chloro-6-(4-hydroxypiperidin-1-yl)pyridin-3-yl]-1-(4-chlorophenyl)-5-methyl-1H-pyrazole-4-carboxamide], the IC50 amounted to 142 nM.

For `N#Cc1cc(NC(=O)c2ccn(-c3ccc(F)cc3)c2)cnc1N1CCC(CCO)CC1` [Example 37, N-{5-cyano-6-[4-(2-hydroxyethyl)piperidin-1-yl]pyridin-3-yl}-1-(4-fluorophenyl)-1H-pyrrole-3-carboxamide], the 50% inhibitory concentration (IC50) stood at 140 nM.

In the case of `Cc1cc(NC(=O)c2cnn(-c3ccc(Cl)cn3)c2C)cnc1N1CCC(C(C)(C)F)CC1` [Example 38, 1-(5-chloropyridin-2-yl)-N-{6-[4-(1-fluoro-1-methylethyl)piperidin-1-yl]-5-methylpyridin-3-yl}-5-methyl-1H-pyrazole-4-carboxamide], the IC50 was found to be 140 nM.

Regarding `CC(=O)OCCC1CCN(c2ncc(NC(=O)c3cnn(-c4ccc(Cl)cc4)c3C)cc2C#N)CC1` [Example 40, acetic acid [2-(1-{5-[1-(4-chlorophenyl)-5-methyl-1H-pyrazole-4-carboxamide]-3-cyanopyridin-2-yl}piperidin-4-yl)ethyl]ester], the IC50 turned out to be 116 nM.

As to `Cc1cc(NC(=O)c2cnn(-c3ccc(Cl)cc3)c2C)cnc1N1CCC(C(C)(C)F)CC1` [Example 41, 1-(4-chlorophenyl)-N-{6-[4-(1-fluoro-1-methylethyl)piperidin-1-yl]-5-methylpyridin-3-yl}-5-methyl-1H-pyrazole-4-carboxamide], the IC50 is 112 nM.

`Cc1c(C(=O)Nc2cnc(N3CCC(CCO)CC3)c(C3CC3)c2)cnn1-c1ccc(Cl)cc1` [Example 42, 1-(4-chlorophenyl)-N-{5-cyclopropyl-6-[4-(2-hydroxyethyl)piperidin-1-yl]pyridin-3-yl}-5-methyl-1H-pyrazole-4-carboxamide]: the IC50 turned out to be 106 nM.

With `Cc1cc(NC(=O)c2ccn(-c3ccc(C#N)cn3)c2)cnc1N1CCC(C(C)(C)O)CC1` [Example 46, 1-(5-cyanopyridin-2-yl)-N-{6-[4-(1-hydroxy-1-methylethyl)piperidin-1-yl]-5-methylpyridin-3-yl}-1H-pyrrole-3-carboxamide], the IC50 worked out at 60.8 nM.

Turning to `Cc1cc(NC(=O)c2cnn(-c3ncc(Cl)cc3Cl)c2C)cnc1N1CCC(C(C)(C)F)CC1` [Example 48, 1-(3,5-dichloropyridin-2-yl)-N-{6-[4-(1-fluoro-1-methylethyl)piperidin-1-yl]-5-methylpyridin-3-yl}-5-methyl-1H-pyrazole-4-carboxamide], the IC50 turned out to be 56.4 nM.

With `Cc1cc(NC(=O)c2cnn(-c3ccccc3)c2C)cnc1N1CCC(CC(C)(C)O)CC1` [Example 50, N-{6-[4-(2-hydroxy-2-methylpropyl)piperidin-1-yl]-5-methylpyridin-3-yl}-5-methyl-1-phenyl-1H-pyrazole-4-carboxamide], the IC50 was found to be 54.1 nM.
